Test results taken from patent US6423691B1, “Pharmaceutical composition for prophylaxis and therapy of diseases associated with ocular fundus tissue cytography” (Senju Pharmaceutical Co., Ltd., priority 1998, dated 2002).
Peptide text beside a SMILES is read from it. * marks the point of attachment. Cbz = O=C(OCc1ccccc1)*

Columns and labels:
[1] = tested on: retinal neurons (ganglion cells) and inner nuclear layer cells; experiment: Effect on rat ocular fundus tissue cytopathy (central retinal artery occlusion/reperfusion); assay type: in vivo; conditions: male SD rats, 75 min central retinal artery occlusion, 100 mg/kg i.p. 15 min before occlusion, immediately after reperfusion, then once daily; specimens 5 days after reperfusion
Text: FIG. 1 is a diagrammatic representation of the effect on injury of rat retinal ganglion cells. The ordinate represents the number of ganglion cells. In the diagram, a) denotes a significant difference (p<0.01) from the normal group by Student's t-test; b) denotes a significant difference (p<0.01) from the control group by Student's t-test.
FIG. 2 is a diagrammatic representation of the effect on injury of the rat retinal inner nuclear layer cells. The ordinate represents the number of inner nuclear layer cells. In the diagram, a) denotes a significant difference (p<0.01) from the normal group by Student's t-test; b) denotes a significant difference (p<0.01) from the control group by Student's t-test.
Effect on Rat Ocular Fundus Tissue Cytopathy Method:
Using male SD rats (b. wt. 150 g), the central retinal artery was occluded with an aneurysm clip under anesthesia with 5 w/v % ketamine HCl/2 w/v % xylazine HCl (3:1, 0.5 ml, i.p.) to arrest the blood flow for 75 minutes. In the normal group, the central retinal artery was exposed but ischemia was not introduced. Tissue specimens were prepared 5 days after reperfusion. For use as a tissue specimen, the enucleated eyeball was fixed in 4% formaldehyde and embedded in paraffin in a routine manner. Then, thin sections (3 μm thick) were prepared by transverse slicing at right angles with the retinal surface including the optic disc and stained with hematoxylin-eosin. Under the light microscope, the retinal neurons (ganglion cells) and inner nuclear layer cells were counted per 0.25 mm span of the retinal section at a predetermined distance (1-2 mm) from the optic disc. As the test drug, a parenteral suspention prepared as in Example 3 was administered intraperitoneally in a dose of 100 mg, as Compound 1, per kg body weight 15 minutes before arterial occlusion, immediately after reperfusion, and thereafter once daily (Compound 1 administration group). The control and normal groups were similarly given the vehicle used in Example 3. In the positive control group, Cbz-Val-Phe-H [S.C. Hong et al., Stroke, 25 (3), 663-669, 1994], 100 mg/kg, was similarly administered (MDL administration group).

calpain = experiment: Effect on rat enucleated retina cytopathy under hypoxia (spectrin cleavage, SDS electrophoresis); assay type: cell-based; conditions: rat retina incubated under hypoxia in glucose-free RPMI 1640, 3 and 6 hours, 100 μM
Protocol: FIG. 3(a) and FIG. 3(b) are SDS electrophoretic images showing the cleavage product of endocellular spectrin obtained upon homogenation of retina tissues detected after incubation of rat retina tissues under hypoxia, wherein FIG. 3(a) and FIG. 3(b) show SDS electrophoretic images after incubation for 3 hours and 6 hours, respectively.
Effect on Rat Enucleated Retina Cytopathy Under Hypoxia Method:
The ocular fundus tissue (retina) of male SD rats (b. wt. 150 g) was removed and incubated under hypoxia in RPMI 1640 medium (manufactured by (Gibco) without glucose. The ocular fundus tissue was homogenized 3 and 6 hours later, and the cleavage product of endocellular spectrin was isolated by SDS electrophoresis and detected using homophil prepared by the method of Saido et. al. [The Journal of Biological Chemistry, 268, 25239-25243 (1993)]. As the test compounds, Compound 1 and MDL were dissolved in ethanol to a concentration of 20 mM and added to the culture medium to a concentration of 100 μM (Compound 1 administration group and MDL administration group). As a control, the ocular fundus tissue of male SD rats (b. wt. 150 g) was incubated in the same manner in the presence of oxygen in RPMI 1640 medium containing glucose.

## CC(C)[C@H](NC(=O)OCc1ccccc1)C(=O)N[C@H](C=O)Cc1ccccc1 [MDL, Cbz-Val-Phe-H] (Cbz-Val-Phe-aldehyde)
[1]
  inhibition of the decrease in ganglion cell count caused by arterial occlusion: slight
  inhibition of the decrease in inner nuclear layer cell count caused by arterial occlusion: slight
calpain
  145 kDa band (cleavage product of spectrin): not detected
  150 kDa band due to the digestion of spectrin: somewhat detected

## CC(C)C[C@@H](C=O)NC(=O)[C@@H](NS(=O)(=O)c1ccc(F)cc1)C(C)C [Compound 1, N-(4-fluorophenylsulfonyl)-L-valyl-L-leucinal]
[1]
  inhibition of the decrease in ganglion cell count caused by arterial occlusion: significantly inhibited
  inhibition of the decrease in inner nuclear layer cell count caused by arterial occlusion: significantly inhibited
calpain
  145 kDa band (cleavage product of spectrin): not detected
  150 kDa band due to the digestion of spectrin: somewhat detected
